Data reported in patent US5945451A, “Fluorobutenyl(thio)ethers used as pesticides” (Bayer Aktiengesellschaft, priority 1994, dated 1999).
Each block holds one compound with its values, some of them ahead of it.

Legend:
Meloidogyne incognita = experiment: Critical concentration test/nematodes; format: in vivo; details: 20 ppm in soil; lettuce root galls after three weeks
Method: Critical concentration test/nematodes
Test nematode: Meloidogyne incognita
Solvent: 3 parts by weight of acetone
(§1) Emulsifier: 1 part by weight of alkylaryl polyglycol ether
To produce a suitable preparation of active compound, 1 part by weight of active compound is mixed with the stated amount of solvent, the stated amount of emulsifier is added and the concentrate is diluted with water to the desired concentration.
The preparation of active compound is intimately mixed with soil which is severely infested with the test nematodes. The concentration of the active compound in the preparation is of practically no importance, only the amount of active compound per unit volume of soil, which is given in ppm (=mg/l), being decisive. The treated soil is transferred into pots, lettuce is sown in, and the pots are kept at a greenhouse temperature of 25° C.
After three weeks, the lettuce roots are checked for infestation with nematodes (root galls) and the degree of efficacy of the active compound in % is determined. The degree of efficacy is 100% when infestation is avoided completely and 0% when the infestation level is just as high as in the control plants in untreated, but equally infested, soil.

Lucilia cuprina larvae = experiment: Blowfly larvae test; format: in vivo; details: after 24 hours, horse meat, read-out: destruction
Method: Test animals: Lucilia cuprina larvae
Solvent: 35 parts by weight of ethylene glycol monomethyl ether
Emulsifier: 35 parts by weight of nonylphenol polyglycol ether
For the purpose of producing a suitable formulation, 3 parts by weight of the active compound are mixed with 7 parts of the abovementioned mixture of solvent and emulsifier, and the emulsion concentrate thus obtained is diluted with water to the particular concentration desired.
About 20 Lucilia cuprina larvae are introduced into a test tube which contains approx. 1 cm^3 of horse meat and 0.5 ml of the preparation of active compound to be tested. After 24 hours, the efficacy of the preparation of active compound is determined. 100% means that all blowfly larvae have been killed; 0% means that none of the blowfly larvae have been killed.

[1] = system: tobacco budworm (Heliothis virescens); experiment: whole plant or invertebrate; format: in vivo; details: 168 h, read-out: destruction
Method: (§2) Solvent: 7 parts by weight of dimethylformamide
as §1
(§3) To produce a suitable preparation of active compound, 1 part by weight of active compound is mixed with the stated amount of solvent and the stated amount of emulsifier, and the concentrate is diluted with water to the desired concentration.
Soya bean shoots (Glycine max) are treated by being dipped into the preparation of active compound of the desired concentration and are infested with tobacco budworm (Heliothis virescens) while the leaves are still moist.
(§4) After the desired period of time, the destruction in % is determined. 100% means that all the caterpillars have been killed; 0% means that none of the caterpillars have been killed.

[2] = system: caterpillars of the diamond-back moth (Plutella maculipennis); experiment: Plutella test; format: in vivo; details: 168 h, after 7 days, dipped cabbage leaves, read-out: destruction
Method: as §2, §1, §3
Cabbage leaves (Brassica oleracea) are treated by being dipped into the preparation of active compound of the desired concentration and are infested with caterpillars of the diamond-back moth (Plutella maculipennis) while the leaves are still moist.
as §4

[3] = system: mustard beetle larvae (Phaedon cochleariae); experiment: Phaedon larvae test; format: in vivo; details: 168 h, after 7 days, dipped cabbage leaves, read-out: destruction
Method: as §2, §1, §3
After the desired period of time, the destruction in % is determined. 100% means that all the beetle larvae have been killed; 0% means that none of the beetle larvae have been killed.

[4] = system: larvae of the green rice leafhopper (Nephotettix cincticeps); experiment: Nephotettix test; format: in vivo; details: 144 h, read-out: destruction
Method: as §2, §1, §3
Rice seedlings (Oryzae sativa) are treated by being dipped into the preparation of active compound of the desired concentration and are infested with larvae of the green rice leafhopper (Nephotettix cincticeps) while the seedlings are still moist.
After the desired period of time, the destruction in % is determined. 100% means that all the leafhoppers have been killed; 0% means that none of the leafhoppers have been killed.

[5] = log p, octanol/water partition coefficient determined by reversed-phase HPLC; format: physicochemical; details: for chromatographic logP: pH not stated; for chromatographic logD: pH 2
Description: * log p = Logarithm of the partition coefficient p of the substance
between the solvents octanol and water, determined experimentally by mean

Compound: O=C(CSCCC(F)=C(F)F)OCc1ccccc1 [Example I-2]
- degree of efficacy (Meloidogyne incognita): 100%

Compound: CN(C)C(=O)CSCCC(F)=C(F)F [Example I-9]
- mortality at 1000 ppm (Lucilia cuprina larvae): 100%

Compound: O=C(CSCCC(F)=C(F)F)Nc1ccc(F)cc1 [Example I-10]
- mortality at 0.1 % [1]: 85%

Compound: O=C(CSCCC(F)=C(F)F)Nc1ccccn1 [Example I-11]
- degree of efficacy (Meloidogyne incognita): 100%

Compound: CC(C)N(C(=O)CSCCC(F)=C(F)F)c1ccc(Cl)c(Cl)c1 [Example I-13]
- mortality at 0.1 % [2]: 100%
- mortality at 0.1 % [3]: 100%

Compound: CC(C)N(C(=O)CSCCC(F)=C(F)F)c1cccc(F)c1 [Example I-14]
- mortality at 0.1 % [4]: 100%
- mortality at 0.1 % [2]: 100%

Compound: O=C(O)CNC(=O)CSCCC(F)=C(F)F [Example I-15]
- degree of efficacy (Meloidogyne incognita): 100%

Compound: CC(NC(=O)CSCCC(F)=C(F)F)C(=O)O (stereo not drawn) [Example I-16]
- degree of efficacy (Meloidogyne incognita): 100%

Compound: O=C(CSCCC(F)=C(F)F)NC(Cc1ccccc1)C(=O)O (stereo not drawn) [Example I-17]
- degree of efficacy (Meloidogyne incognita): 100%

- chromatographic logP [5]: 2.77
Compound: CC(NC(=O)CSCCC(F)=C(F)F)c1ccccc1 (stereo not drawn) [Example I-18]

- chromatographic logP [5]: 2.94
Compound: O=C(CSCCC(F)=C(F)F)NCc1ccc(Cl)cc1 [Example I-19]

- chromatographic logP [5]: 2.43
Compound: COC(=O)CSCCC(F)=C(F)F [Example I-20]

- chromatographic logP [5]: 3.74
Compound: CC(C)COC(=O)CSCCC(F)=C(F)F [Example I-21]

- chromatographic logD [5]: 1.22
Compound: NC(=O)CSCCC(F)=C(F)F [Example I-22]

- chromatographic logD [5]: 2.56
Compound: O=C(CSCCC(F)=C(F)F)NCc1ccccc1 [Example I-23]

- chromatographic logD [5]: 4.59
Compound: O=C(Nc1ccc(Cl)c(Cl)c1)C(SCCC(F)=C(F)F)c1ccccc1 (stereo not drawn) [Example I-46]
